This note sets out measurements from patent publication US6423352B1 (priority 1998, dated 2002).

Like-named read-outs stand apart in the source and are kept apart here.

Holding throughout (assay type): in vivo
Experiment [1] deals with Phytophthora infestans. As to conditions: for % Protection, late blight in potato / Diseased leaf area, late blight in potato: Example 2; for Diseased leaf area, late blight in potato: recorded 4 days post inoculation, untreated control 98; for % diseased leaf area, late blight potato, 5 d: Example 17, none 100.
In experiment [2] the test system is Erysiphe graminis tritici. In words: powdery mildew in wheat: sprayed plants inoculated, diseased leaf area recorded. As to conditions: for % diseased leaf area, wheat powdery mildew, 10 d: Example 14, solvent conc. 1%, inoculation three hours after spray, none (control) 50; for % diseased leaf area, powdery mildew wheat, 8 d: Example 17, none 69. Here is the method: (§1) To test the efficacy of these extracts and suspensions, experiments were performed in which plants were sprayed using a fine glass atomizer with either Inula extract or with pure solvent as a control for the Inula extracts, with either Inula extract and emulsifier or with an emulsifier solution as a control for the emulsified Inula extracts, and with either Inula suspension or with water or emulsifier solution as a control for the Inula suspensions. Treated and control plants were then inoculated with a crop-respective fungal pathogen. After an incubation period, the extent of the infection was measured. Unless otherwise stated, percentage protection from the disease due to the treatment with the Inula extract or suspension was calculated as:
(§2) % control of the disease=[1−(% infection and treated plants/% infection in control plants)]×100.
The crop plants and pathogens used for inoculation are described in the following list.
Inoculation with P. infestants, P. cubensis, P. tabacina, P. viticola, B. cinera and C. fulvum was done by spraying a spore suspension in distilled water onto the upper leaf surfaces of the treated (and the control) plants. Inoculated plants were kept in a dew chamber at 18-20° C. in the dark for 16-20 hours and then in a growth chamber at 20° C. with 12 hours photoperiod. Inoculation with E. graminis and S. fuliginea was done by blowing spores over the treated (and control) plants. Inoculated plants were then kept in a growth chamber as above.
(§3) Disease records were visually estimated in the inoculated plants at 3-13 days after inoculation, depending on the crop and disease. Percentage leaf area occupied with disease symptoms or fungal colonies was recorded and given in the results section.

Experiment [3] concerns Pseudoperonospora cubensis. In words: downy mildew in cucumber: sprayed plants inoculated, disease recorded. As to conditions: Example 14; solvent conc. 1%; inoculation three hours after spray; none (control) 88. As for the experimental part:
as §1, §2
The crop plants and pathogens used for inoculation are described in the following list. […]
as §3

The test system of experiment [4] is Phytophthora infestans. Particulars: for % diseased leaf area, solvent control: Example 12, late blight in tomato, untreated control 81; for % diseased leaf area, late blight tomato, 5 d: Example 17, none 81.

In the case of `N.O` [NH4OH, ammonium hydroxide], the “% Protection, late blight in potato” value in the experiment on Phytophthora infestans [1] (NH4OH 1%), with Phytophthora infestans [1] (NH4OH 2%), in the experiment on Phytophthora infestans [1] (NH4OH 4%) and in the experiment on Phytophthora infestans [1] (NH4OH 8% (= 2% aqueous NH3)) was 0% in each case. The “Diseased leaf area, late blight in potato” value with Phytophthora infestans [1] (NH4OH 1%) came to 100; in the experiment with Phytophthora infestans [1] (NH4OH 2%), 100; with Phytophthora infestans [1] (NH4OH 4%), 100; in the experiment on Phytophthora infestans [1] (NH4OH 8% (= 2% aqueous NH3), inoculated 2 days after spray), 100.
On to `C1CCNCC1` [piperidine], for which the “% diseased leaf area, wheat powdery mildew, 10 d” value in experiment [2] was 25%. Moreover, the “% diseased leaf area, cucumber downy mildew, 6 d” value in experiment [3] was 94%. Moreover, the “% diseased leaf area, Tomato late blight, 4 d” value in the experiment with Phytophthora infestans [4] (Example 14, solvent conc. 1%, inoculation three hours after spray, none (control) 88) is recorded as 88%.
As for `C1CNCCN1.O` [piperazine hydrate], the “% diseased leaf area, solvent control” value in the experiment with Phytophthora infestans [4] (solvent alone 0.05M) and in the experiment with Phytophthora infestans [4] (solvent alone 0.1M) was 81% throughout.
Consider `c1c[nH]cn1` [Imidazole only, imidazole], for which the “% diseased leaf area, late blight potato, 5 d” value is recorded as 50% in the experiment on Phytophthora infestans [1] (imidazole only 0.12% pH 9.55), 50% in the experiment on Phytophthora infestans [1] (imidazole only 0.25% pH 9.70), 25% with Phytophthora infestans [1] (imidazole only 0.5% pH 9.86) and 18% with Phytophthora infestans [1] (imidazole only 1% pH 9.95). The “% diseased leaf area, powdery mildew wheat, 8 d” value in experiment [2] (imidazole only 0.12% pH 9.55) is on record as 63%; in experiment [2] (imidazole only 0.25% pH 9.70), 50%; in experiment [2] (imidazole only 0.5% pH 9.86), 23%; in experiment [2] (imidazole only 1% pH 9.95), 25%. For the same compound, the “% diseased leaf area, late blight tomato, 5 d” value with Phytophthora infestans [4] (imidazole only 0.12% pH 9.55) came out at 95%; in the experiment with Phytophthora infestans [4] (imidazole only 0.25% pH 9.70), 88%; in the experiment with Phytophthora infestans [4] (imidazole only 0.5% pH 9.86), 69%; with Phytophthora infestans [4] (imidazole only 1% pH 9.95), 50%.
Consider tetraethylene, for which, in experiment [2], the “% diseased leaf area, wheat powdery mildew, 10 d” value was 50%. In experiment [3], the “% diseased leaf area, cucumber downy mildew, 6 d” value worked out at 31%. Further, the “% diseased leaf area, Tomato late blight, 4 d” value with Phytophthora infestans [4] (in vivo) came to 63%.
